Reference: ChEMBL document CHEMBL5543162, “Discovery of a Novel Orally Bioavailable FLT3-PROTAC Degrader for Efficient Treatment of Acute Myeloid Leukemia and Overcoming Resistance of FLT3 Inhibitors” (J Med Chem, 2024)
The source made the active and inactive calls. The calls are words filed in the database; no cut-off is given here.

Key:
[1] = target: T1, Cytochrome P450 2C8 (Homo sapiens, UniProt P10632); assay: Inhibition of CYP2C8 (unknown origin); format: ADME
T1 sequence (P10632 whole entry): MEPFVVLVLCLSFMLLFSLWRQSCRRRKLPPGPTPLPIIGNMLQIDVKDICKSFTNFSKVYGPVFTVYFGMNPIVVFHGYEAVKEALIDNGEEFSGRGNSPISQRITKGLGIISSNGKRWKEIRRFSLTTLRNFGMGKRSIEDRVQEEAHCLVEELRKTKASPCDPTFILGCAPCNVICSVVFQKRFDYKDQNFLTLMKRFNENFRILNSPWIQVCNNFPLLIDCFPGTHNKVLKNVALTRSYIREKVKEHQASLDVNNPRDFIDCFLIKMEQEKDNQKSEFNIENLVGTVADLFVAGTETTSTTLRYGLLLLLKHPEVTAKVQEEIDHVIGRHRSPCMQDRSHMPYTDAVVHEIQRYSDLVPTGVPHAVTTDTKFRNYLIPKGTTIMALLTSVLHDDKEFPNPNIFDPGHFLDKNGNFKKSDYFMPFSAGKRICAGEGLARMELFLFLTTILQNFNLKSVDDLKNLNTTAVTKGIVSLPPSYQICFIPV

[2] = Stability in mouse liver microsomes assessed as half life; format: ADME, Microsome
[3] = target: Protein cereblon/Receptor-type tyrosine-protein kinase FLT3 (Homo sapiens, UniProt P36888+Q96SW2); assay: (§1) PROTAC activity at CRBN/FLT3-ITD mutant in human MV4-11 cells assessed as protein degradation by Western blot analysis; format: cell-based
[4] = test system: Protein cereblon/Receptor-type tyrosine-protein kinase FLT3 (Homo sapiens), P36888+Q96SW2 [UNDEFINED MUTATION]; assay: as §1; format: cell-based
[5] = Stability in mouse liver microsomes assessed as hepatic clearance; format: ADME, Microsome
[6] = test system: Protein cereblon/Receptor-type tyrosine-protein kinase FLT3 (Homo sapiens), P36888+Q96SW2 [UNDEFINED MUTATION]; assay: PROTAC activity at CRBN/FLT3-ITD mutant in human MV4-11 cells assessed as decrease in S6K level at 20 nM by Western blot analysis; format: cell-based; conditions: time <= 12.0 hrs, TDE = time-dependent effect
[7] = Stability in monkey liver microsomes assessed as intrinsic clearance; format: ADME, Microsome; conditions: chlorocebus aethiops, read-out: CLH
[8] = test system: MV4-11; assay: Antitumor activity against human MV4-11 cells expressing luciferase xenografted in NSG mouse assessed as increase in animal survival at 10 mg/kg, po administered daily for 3 weeks and measured for 77 days; format: functional, organism-based; conditions: time 77.0 day
[9] = Volume of distribution at steady state in Sprague-Dawley rat at 10 mg/kg, po measured for 24 hrs by LC-MS/MS analysis; format: ADME, organism-based; conditions: in vivo
[10] = test system: Protein cereblon/Receptor-type tyrosine-protein kinase FLT3 (Homo sapiens), P36888+Q96SW2 [UNDEFINED MUTATION]; assay: PROTAC activity at CRBN/FLT3-ITD mutant in human MV4-11 cells assessed as protein degradation incubated for 12 hrs by Western blot analysis; format: cell-based; conditions: dose <= 20.0 nM
[11] = test system: Protein cereblon/Receptor-type tyrosine-protein kinase FLT3 (Homo sapiens), P36888+Q96SW2 [UNDEFINED MUTATION]; assay: PROTAC activity at CRBN/FLT3-ITD mutant in human MV4-11 cells assessed as protein degradation at 100 nM incubated for 24 hrs followed by compound washout measured upto 48 hrs by Western blot analysis; format: cell-based; conditions: time 72.0 hrs
[12] = Stability in rat liver microsomes assessed as intrinsic clearance; format: ADME, Microsome; conditions: read-out: CLH
[13] = Toxicity in nu/nu mouse xenografted with human MV4-11 cells assessed as damage in spleen at 1.25 to 10 mg/kg, po administered daily for 2 weeks by H and E staining based analysis; format: organism-based; conditions: in vivo, 336 h, dose 1.25-10 mg/kg
[14] = test system: MV4-11; assay: Antitumor activity against human MV4-11 cells xenografted in nu/nu mouse at 2.5 mg/kg, po administered daily for 2 weeks relative to control; format: functional; conditions: MV4-11, 336 h, read-out: TGI
[15] = Half life in Sprague-Dawley rat at 10 mg/kg, po measured for 24 hrs by LC-MS/MS analysis; format: ADME, organism-based; conditions: in vivo
[16] = test system: MV4-11; assay: Antitumor activity against human MV4-11 cells expressing luciferase xenografted in NSG mouse assessed as increase in animal survival at 5 mg/kg, po administered daily for 3 weeks and measured for 66 days; format: functional, organism-based; conditions: time 66.0 day
[17] = AUC (0 to t) in Sprague-Dawley rat at 10 mg/kg, po measured for 24 hrs by LC-MS/MS analysis; format: ADME, organism-based; conditions: in vivo
[18] = Toxicity in nu/nu mouse xenografted with human MV4-11 cells assessed as damage in lung at 1.25 to 10 mg/kg, po administered daily for 2 weeks by H and E staining based analysis; format: organism-based; conditions: in vivo, 336 h, dose 1.25-10 mg/kg
[19] = test system: Protein cereblon/Receptor-type tyrosine-protein kinase FLT3 (Homo sapiens), P36888+Q96SW2 [UNDEFINED MUTATION]; assay: PROTAC activity at CRBN/FLT3-ITD mutant in human MOLM-13 cells assessed as decrease in STAT5 level incubated for 12 hrs by Western blot analysis; format: cell-based; conditions: dose <= 20.0 nM
[20] = test system: Protein cereblon/Receptor-type tyrosine-protein kinase FLT3 (Homo sapiens), P36888+Q96SW2 [UNDEFINED MUTATION]; assay: PROTAC activity at CRBN/FLT3-ITD mutant in human MV4-11 cells assessed as protein degradation at 100 nM incubated for 8 hrs in presence of bortezomib by Western blot analysis; format: cell-based
[21] = Antiproliferative activity against human THP-1 cells expressing wild-type FLT3 incubated for 48 hrs by CCK8 assay; format: toxicity, cell-based
[22] = Half life in Sprague-Dawley rat at 1 mg/kg, iv measured for 24 hrs by LC-MS/MS analysis; format: ADME, organism-based; conditions: in vivo
[23] = Toxicity in nu/nu mouse xenografted with human MV4-11 cells assessed as damage in heart at 1.25 to 10 mg/kg, po administered daily for 2 weeks by H and E staining based analysis; format: organism-based; conditions: in vivo, 336 h, dose 1.25-10 mg/kg
[24] = test system: Protein cereblon/Receptor-type tyrosine-protein kinase FLT3 (Homo sapiens), P36888+Q96SW2 [UNDEFINED MUTATION]; assay: PROTAC activity at CRBN/FLT3-ITD mutant in human MV4-11 cells assessed as decrease in STAT5 level at 20 nM by Western blot analysis; format: cell-based; conditions: time <= 12.0 hrs, TDE = time-dependent effect
[25] = test system: BaF3; assay: Antiproliferative activity against mouse Ba/F3 cells expressing FLT3-ITD F691L mutant incubated for 48 hrs by CCK8 assay; format: functional, cell-based; conditions: BaF3, 48 h
[26] = Stability in human liver microsomes assessed as hepatic clearance; format: ADME, Microsome
[27] = Antiproliferative activity against human PBMC cells at 30 to 1000 nM incubated for 48 hrs by CCK8 assay; format: toxicity, cell-based; conditions: 1 µM, dose 30-1000 nM
[28] = Volume of distribution at steady state in Sprague-Dawley rat at 1 mg/kg, iv measured for 24 hrs by LC-MS/MS analysis; format: ADME, organism-based; conditions: in vivo, read-out: Vdss
[29] = test system: MV4-11; assay: Antitumor activity against human MV4-11 cells xenografted in nu/nu mouse at 1.25 mg/kg, po administered daily for 2 weeks relative to control; format: functional; conditions: MV4-11, 336 h, read-out: TGI
[30] = target: CYP3A4/CYP3A5 (Homo sapiens, UniProt P08684+P20815); assay: Inhibition of CYP3A4/CYP3A5 (unknown origin) using testosterone as substrate; format: ADME, protein assay; conditions: probe testosterone
[31] = test system: Protein cereblon/Receptor-type tyrosine-protein kinase FLT3 (Homo sapiens), P36888+Q96SW2 [UNDEFINED MUTATION]; assay: PROTAC activity at CRBN/FLT3-ITD mutant in human MV4-11 cells assessed as protein degradation at 100 nM incubated for 24 hrs by Western blot analysis; format: cell-based
[32] = target: Cytochrome P450 2C19 (Homo sapiens, UniProt P33261); assay: Inhibition of CYP2C19 (unknown origin); format: ADME
[33] = test system: MV4-11; assay: Induction of apoptosis in human MV4-11 cells incubated for 24 hrs by Annexin V-FITC/PI staining based flow cytometry; format: functional, cell-based; conditions: dose 25-100 nM
[34] = test system: Protein cereblon/Receptor-type tyrosine-protein kinase FLT3 (Homo sapiens), P36888+Q96SW2 [UNDEFINED MUTATION]; assay: PROTAC activity at CRBN/FLT3-ITD mutant in human MOLM-13 cells assessed as protein degradation incubated for 12 hrs by Western blot analysis; format: cell-based; conditions: dose <= 20.0 nM

Chain of Protein cereblon/Receptor-type tyrosine-protein kinase FLT3 (Homo sapiens), P36888+Q96SW2 [UNDEFINED MUTATION] (P36888 whole entry, looked up, stated change not applied): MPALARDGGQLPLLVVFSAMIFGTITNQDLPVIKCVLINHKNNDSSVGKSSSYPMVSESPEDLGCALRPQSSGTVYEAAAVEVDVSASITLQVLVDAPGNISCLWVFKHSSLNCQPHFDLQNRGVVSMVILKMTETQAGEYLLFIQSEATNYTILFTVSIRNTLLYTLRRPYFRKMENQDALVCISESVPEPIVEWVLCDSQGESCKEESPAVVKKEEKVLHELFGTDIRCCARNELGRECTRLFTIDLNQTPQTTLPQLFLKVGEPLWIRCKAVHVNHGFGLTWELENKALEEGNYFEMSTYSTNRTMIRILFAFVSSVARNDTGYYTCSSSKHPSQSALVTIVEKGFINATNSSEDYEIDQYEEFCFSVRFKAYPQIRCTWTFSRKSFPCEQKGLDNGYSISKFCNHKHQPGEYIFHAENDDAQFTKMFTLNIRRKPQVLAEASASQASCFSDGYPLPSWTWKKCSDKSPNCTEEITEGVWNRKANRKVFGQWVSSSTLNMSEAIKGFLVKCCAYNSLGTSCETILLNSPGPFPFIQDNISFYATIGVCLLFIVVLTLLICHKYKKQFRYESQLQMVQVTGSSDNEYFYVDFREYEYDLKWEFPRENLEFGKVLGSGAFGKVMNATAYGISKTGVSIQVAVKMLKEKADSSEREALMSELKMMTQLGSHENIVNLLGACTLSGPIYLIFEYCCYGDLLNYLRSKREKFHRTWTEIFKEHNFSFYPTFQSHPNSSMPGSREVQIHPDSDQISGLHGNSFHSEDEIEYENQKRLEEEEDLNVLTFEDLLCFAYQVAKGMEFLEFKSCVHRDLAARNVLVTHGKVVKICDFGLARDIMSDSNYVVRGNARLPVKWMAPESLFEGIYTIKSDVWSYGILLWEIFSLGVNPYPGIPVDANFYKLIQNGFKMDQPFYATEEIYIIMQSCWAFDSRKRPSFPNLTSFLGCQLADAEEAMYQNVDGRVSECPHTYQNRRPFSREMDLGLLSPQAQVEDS
Chain of Protein cereblon/Receptor-type tyrosine-protein kinase FLT3 (Homo sapiens), P36888+Q96SW2 [UNDEFINED MUTATION] (Q96SW2 whole entry, looked up, stated change not applied): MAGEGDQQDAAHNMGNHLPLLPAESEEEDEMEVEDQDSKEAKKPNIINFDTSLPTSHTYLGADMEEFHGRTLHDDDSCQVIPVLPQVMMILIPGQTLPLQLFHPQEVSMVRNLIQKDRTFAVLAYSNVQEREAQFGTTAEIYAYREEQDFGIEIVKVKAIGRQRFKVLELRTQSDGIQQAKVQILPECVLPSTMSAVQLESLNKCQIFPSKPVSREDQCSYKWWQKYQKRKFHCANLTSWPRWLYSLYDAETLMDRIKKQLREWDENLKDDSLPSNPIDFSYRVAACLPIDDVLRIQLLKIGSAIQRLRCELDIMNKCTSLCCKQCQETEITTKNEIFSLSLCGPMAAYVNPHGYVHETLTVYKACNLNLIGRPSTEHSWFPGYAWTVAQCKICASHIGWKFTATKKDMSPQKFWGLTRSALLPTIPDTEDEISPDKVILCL
Chain of Cytochrome P450 2C19 (P33261 whole entry): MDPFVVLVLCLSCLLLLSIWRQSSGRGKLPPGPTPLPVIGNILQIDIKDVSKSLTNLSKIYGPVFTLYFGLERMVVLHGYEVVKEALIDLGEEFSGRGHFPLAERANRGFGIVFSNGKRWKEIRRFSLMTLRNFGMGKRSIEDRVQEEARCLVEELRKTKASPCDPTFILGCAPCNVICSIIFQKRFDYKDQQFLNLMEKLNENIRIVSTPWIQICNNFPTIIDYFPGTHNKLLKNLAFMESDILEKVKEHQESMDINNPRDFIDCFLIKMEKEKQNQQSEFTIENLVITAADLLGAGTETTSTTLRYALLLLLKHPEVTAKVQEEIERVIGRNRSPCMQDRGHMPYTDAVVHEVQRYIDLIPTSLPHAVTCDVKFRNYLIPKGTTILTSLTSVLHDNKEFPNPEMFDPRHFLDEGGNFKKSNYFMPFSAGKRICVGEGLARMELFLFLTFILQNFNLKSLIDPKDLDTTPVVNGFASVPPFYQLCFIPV
Chain of Protein cereblon/Receptor-type tyrosine-protein kinase FLT3 (P36888 whole entry, looked up, change not shown): as the sequence (P36888 whole entry, looked up, stated change not applied) above
Chain of Protein cereblon/Receptor-type tyrosine-protein kinase FLT3 (Q96SW2 whole entry, looked up, change not shown): as the sequence (Q96SW2 whole entry, looked up, stated change not applied) above

SMILES: Cc1c(NC(=O)CN2CCN(CC3CCN(c4ccc5c(c4)C(=O)N(C4CCC(=O)NC4=O)C5=O)CC3)CC2)c[nH]c1/C=C1\C(=O)Nc2ccc(F)cc21 (centres undefined)
- IC50 [1]: > 50 µM
- half-life [2]: 0.982 h
- DC50 [3]: 0.0074 µM
- Activity [4]: Dose-Dependent Effect
- CLhep predicted [5]: 45.7 mL/min/kg
- Activity [6]: Tde
- CLint scaled [7]: 50.7 mL/min/kg
- Activity [8]: Active
- Vdss [9]: 5.7 L/kg
- Activity [10]: Dose-Dependent Effect
- Activity [11]: Active
- CLint scaled [12]: 27 mL/min/kg
- Activity [13]: Non-Toxic
- inhibition in vivo at 2.5 mg/kg [14]: 84.4%
- half-life [15]: 3.8 h
- Activity [16]: Active
- AUC(0-t) at 24 h [17]: 14700 ng·h/mL
- Activity [18]: Non-Toxic
- Activity [19]: Dose-Dependent Effect
- Activity [20]: inactive
- IC50 at 48 h [21]: 15.1 µM
- half-life [22]: 6.5 h
- Activity [23]: Non-Toxic
- Activity [24]: Tde
- IC50 [25]: 0.0662 µM
- CLhep predicted [26]: 10.9 mL/min/kg
- Activity [27]: Non-Toxic
- Vd [28]: 3.5 L/kg
- inhibition in vivo at 1.25 mg/kg [29]: 51.4%
- IC50 [30]: > 50 µM
- Activity [31]: Active
- IC50 [32]: > 50 µM
- Activity [33]: Dose-Dependent Effect
- Activity [34]: Dose-Dependent Effect
